Results taken from patent US8802664B2 (Bioproject, priority 2010, dated 2014).

target: T1, human H4 receptor (Homo sapiens, UniProt Q9H3N8); experiment: [3H]Histamine binding on membranes of CHO cells stably expressing human H4 receptor
T1 construct: expressed in transfected cells
In short: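 Nonspecific binding defined with 10 μM JNJ 7777120. Bound radioactivity collected on polyethyleneimine-treated GF/B filters and counted by liquid scintillation.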

| Ki or IC50 activity class | Structure (SMILES) |
| --- | --- |
| < 30 nM | COc1cccc(COc2cccc(C(NC3CCN(C)CC3)c3nc4ccccc4[nH]3)c2)c1 (stereo not drawn) [Example 125, {(1H-benzimidazol-2-yl)[3-(3-methoxybenzyloxy)phenyl]methyl}(1-methylpiperidin-4-yl)amine] |
| < 300 nM | CN1CCC(OC(c2cccc(-c3ccccc3CO)c2)c2nc3ccccc3s2)CC1 (stereo not drawn) [Example 127, {3′-[benzothiazol-2-yl(1-methylpiperidin-4-yloxy)methyl]biphenyl-2-yl}methanol] |
| < 300 nM | CSc1cccc(-c2cccc(C(OC3CCN(C)CC3)c3nc4ccccc4s3)c2)c1 (stereo not drawn) [Example 128, 2-[(1-methylpiperidin-4-yloxy)(3′-methylsulfanylbiphenyl-3-yl)methyl]benzothiazole] |
| < 30 nM | Cc1ccccc1COc1cccc(C(NC2CCN(C)CC2)c2nc3ccccc3[nH]2)c1 (stereo not drawn) [Example 129, {(1H-benzimidazol-2-yl)[3-(2-methylbenzyloxy)phenyl]methyl}(1-methylpiperidin-4-yl)amine] |
| < 300 nM | CN1CCC(OC(c2cccc(-c3ccc(Cl)c(Cl)c3)c2)c2nc3ccccc3s2)CC1 (stereo not drawn) [Example 133, 2-[(3′,4′-dichlorobiphenyl-3-yl)(1-methylpiperidin-4-yloxy)methyl]benzothiazole] |
| < 300 nM | CCOCCOc1cccc(C(NC2CCN(C)CC2)c2nc3ccccc3[nH]2)c1 (stereo not drawn) [Example 134, {(1H-benzimidazol-2-yl)[3-(2-ethoxyethoxy)phenyl]methyl}(1-methylpiperidin-4-yl)amine] |
| < 300 nM | C=CCCCOc1cccc(C(NC2CCN(C)CC2)c2nc3ccccc3[nH]2)c1 (stereo not drawn) [Example 135, [(1H-benzimidazol-2-yl)(3-pent-4-enyloxyphenyl)methyl](1-methylpiperidin-4-yl)amine] |
| < 300 nM | CN1CCC(OC(c2cccc(-c3ccc(F)cc3)c2)c2nc3ccccc3s2)CC1 (stereo not drawn) [Example 136, 2-[(4′-fluorobiphenyl-3-yl)(1-methylpiperidin-4-yloxy)methyl]benzothiazole] |
| < 300 nM | CN1CCC(OC(c2cccc(-c3ccccc3F)c2)c2nc3ccccc3s2)CC1 (stereo not drawn) [Example 137, 2-[(2′-fluorobiphenyl-3-yl)(1-methylpiperidin-4-yloxy)methyl]benzothiazole] |
| < 30 nM | CN1CCC(OC(c2cccc(-c3cccc(F)c3)c2)c2nc3ccccc3s2)CC1 (stereo not drawn) [Example 139, 2-[(3′-fluorobiphenyl-3-yl)(1-methylpiperidin-4-yloxy)methyl]benzothiazole] |
| < 300 nM | CN1CCC(OC(c2cccc(-c3ccc(C(F)(F)F)cc3)c2)c2nc3ccccc3s2)CC1 (stereo not drawn) [Example 140, 2-[(1-methylpiperidin-4-yloxy)(4′-trifluoromethylbiphenyl-3-yl)methyl]benzothiazole] |
| < 300 nM | CN1CCC(OC(c2cccc(-c3ccc(F)c(F)c3F)c2)c2nc3ccccc3s2)CC1 (stereo not drawn) [Example 141, 2-[(1-methylpiperidin-4-yloxy)(2′,3′,4′-trifluorobiphenyl-3-yl)methyl]benzothiazole] |
| < 300 nM | CN1CCC(OC(c2cccc(-c3ccc(NC(=O)OC(C)(C)C)cc3)c2)c2nc3ccccc3s2)CC1 (stereo not drawn) [Example 143, {3′-[benzothiazol-2-yl(1-methylpiperidin-4-yloxy)methyl]biphenyl-4-yl}carbamic acid tert-butyl ester] |
| < 300 nM | CN1CCC(OC(c2cccc(-n3cccn3)c2)c2nc3ccccc3s2)CC1 (stereo not drawn) [Example 147, 2-[(1-methylpiperidin-4-yloxy)(3-pyrazol-1-ylphenyl)methyl]benzothiazole] |
| < 30 nM | CN1CCC(NC(c2cccc(OCc3cc(F)ccc3F)c2)c2nc3ccccc3[nH]2)CC1 (stereo not drawn) [Example 149, {(1H-benzimidazol-2-yl)[3-(2,5-difluoro-benzyloxy)phenyl]methyl}(1-methylpiperidin-4-yl)amine] |
| < 300 nM | CN1CCC(OC(c2cccc(SCc3ccccc3)c2)c2nc3ccccc3[nH]2)CC1 (stereo not drawn) [Example 150, 2-[(3-benzylsulfanylphenyl)(1-methylpiperidin-4-yloxy)methyl]-1H-benzimidazole] |
| < 30 nM | CCc1cccc(C(OC2CCN(C)CC2)c2nc3ccccc3s2)c1 (stereo not drawn) [Example 152, 2-[(3-ethylphenyl)(1-methylpiperidin-4-yloxy)methyl]benzothiazole] |
| < 30 nM | CCSc1cccc(C(OC2CCN(C)CC2)c2nc3ccccc3[nH]2)c1 (stereo not drawn) [Example 153, 2-[(3-ethylsulfanylphenyl)(1-methylpiperidin-4-yloxy)methyl]-1H-benzimidazole] |
| < 300 nM | COC(=O)CSc1cccc(C(OC2CCN(C)CC2)c2nc3ccccc3[nH]2)c1 (stereo not drawn) [Example 154, {3-[(1H-benzimidazol-2-yl)(1-methylpiperidin-4-yloxy)methyl]phenylsulfanyl}acetic acid methyl ester] |

| Ki or IC50 activity class | Structure (SMILES) |
| --- | --- |
| < 30 nM | CN1CCC(OC(c2cccc(OCc3cc(F)ccc3F)c2)c2nc3ccccc3s2)CC1 (stereo not drawn) [Example 156, 2-[[3-(2,5-difluorobenzyloxy)phenyl](1-methylpiperidin-4-yloxy)methyl]benzothiazole] |
| < 300 nM | CN1CCC(OC(c2cccc(SCCO)c2)c2nc3ccccc3[nH]2)CC1 (stereo not drawn) [Example 157, 2-{3-[(1H-benzimidazol-2-yl)(1-methylpiperidin-4-yloxy)methyl]phenylsulfanyl}ethanol] |
| < 30 nM | CN1CCC(OC(c2cccc(SCCO)c2)c2nc3ccccc3s2)CC1 (stereo not drawn) [Example 158, 2-{3-[benzothiazol-2-yl(1-methylpiperidin-4-yloxy)methyl]phenylsulfanyl}ethanol] |
| < 30 nM | CCSc1cccc(C(OC2CCN(C)CC2)c2nc3ccccc3s2)c1 (stereo not drawn) [Example 159, 2-[(3-ethylsulfanylphenyl)(1-methylpiperidin-4-yloxy)methyl]benzothiazole] |
| < 30 nM | COC(=O)CSc1cccc(C(OC2CCN(C)CC2)c2nc3ccccc3s2)c1 (stereo not drawn) [Example 160, {3-[benzothiazol-2-yl(1-methylpiperidin-4-yloxy)methyl]phenylsulfanyl}acetic acid methyl ester] |
| < 30 nM | CN1CCC(OC(c2cccc(OCc3cccc(F)c3F)c2)c2nc3ccccc3s2)CC1 (stereo not drawn) [Example 161, 2-[[3-(2,3-difluorobenzyloxy)phenyl](1-methylpiperidin-4-yloxy)methyl]benzothiazole] |
| < 30 nM | CN1CCC(OC(c2cccc(OCCF)c2)c2nc3ccccc3s2)CC1 (stereo not drawn) [Example 163, 2-[[3-(2-fluoroethoxy)phenyl](1-methylpiperidin-4-yloxy)methyl]benzothiazole] |
| < 300 nM | C=CCCCOc1cccc(C(OC2CCN(C)CC2)c2nc3ccccc3s2)c1 (stereo not drawn) [Example 168, 2-[(1-methylpiperidin-4-yloxy)(3-pent-4-enyloxy-phenyl)methyl]benzothiazole] |
| < 30 nM | CN1CCC(OC(c2cccc(OCc3cccc(F)c3)c2)c2nc3ccccc3s2)CC1 (stereo not drawn) [Example 171, 2-[[3-(3-fluorobenzyloxy)phenyl](1-methylpiperidin-4-yloxy)methyl]benzothiazole] |
| < 300 nM | CN1CCC(OC(c2cccc(C#N)c2)c2nc3ccccc3[nH]2)CC1 (stereo not drawn) [Example 172, 3-[(1H-benzimidazol-2-yl)(1-methylpiperidin-4-yloxy)methyl]benzonitrile] |
| < 300 nM | CN1CCC(OC(c2cccc(SCc3ccco3)c2)c2nc3ccccc3[nH]2)CC1 (stereo not drawn) [Example 173, 2-[[3-(furan-2-ylmethylsulfanyl)phenyl](1-methylpiperidin-4-yloxy)methyl]-1H-benzimidazole] |
| < 300 nM | CN1CCC(NC(c2cccc(OCCCC3(C)OCCO3)c2)c2nc3ccccc3[nH]2)CC1 (stereo not drawn) [Example 174, ((1H-benzimidazol-2-yl)-{3-[3-(2-methyl-[1,3]dioxolan-2-yl)-propoxy]phenyl}methyl)(1-methylpiperidin-4-yl)amine] |
| < 30 nM | CN1CCC(OC(c2cccc(OCCCF)c2)c2nc3ccccc3s2)CC1 (stereo not drawn) [Example 176, 2-[[3-(3-fluoropropoxy)phenyl](1-methylpiperidin-4-yloxy)methyl]benzothiazole] |
| < 300 nM | CN1CCC(OC(c2cccc(OCCC(F)(F)F)c2)c2nc3ccccc3s2)CC1 (stereo not drawn) [Example 178, 2-{(1-methylpiperidin-4-yloxy)[3-(3,3,3-trifluoro-propoxy)phenyl]methyl}benzothiazole] |
| < 30 nM | CN1CCC(NC(c2cccc(OCCF)c2)c2nc3ccccc3[nH]2)CC1 (stereo not drawn) [Example 180, {(1H-benzimidazol-2-yl)[3-(2-fluoro-ethoxy)phenyl]methyl}(1-methylpiperidin-4-yl)amine] |
| < 30 nM | CN1CCC(NC(c2cccc(OCCC3=CCC4CC3C4(C)C)c2)c2nc3ccccc3[nH]2)CC1 (stereo not drawn) [Example 181, ((1H-benzimidazol-2-yl)-{3-[2-(6,6-dimethyl-bicyclo[3.1.1]hept-2-en-2-yl)ethoxy]phenyl}methyl)(1-methylpiperidin-4-yl)amine] |
| < 30 nM | COc1cccc(COc2cccc(C(OC3CCN(C)CC3)c3nc4ccccc4s3)c2)c1 (stereo not drawn) [Example 185, 2-[[3-(3-methoxybenzyloxy)phenyl](1-methylpiperidin-4-yloxy)methyl]benzothiazole] |
| < 1000 nM | CC(=O)CCCOc1cccc(C(OC2CCN(C)CC2)c2nc3ccccc3s2)c1 (stereo not drawn) [Example 186, 5-{3-[benzothiazol-2-yl(1-methylpiperidin-4-yloxy)methyl]phenoxy}pentan-2-one] |
| < 30 nM | CN1CCC(OC(c2cccc(OCc3cccc(C(F)(F)F)c3)c2)c2nc3ccccc3s2)CC1 (stereo not drawn) [Example 187, 2-{(1-methylpiperidin-4-yloxy)[3-(3-trifluoromethyl-benzyloxy)phenyl]methyl}benzothiazole] |

| Structure (SMILES) | Ki or IC50 activity class |
| --- | --- |
| CN1CCC(OC(c2cccc(OCCCC(F)(F)F)c2)c2nc3ccccc3s2)CC1 (stereo not drawn) [Example 169, 2-{(1-methylpiperidin-4-yloxy)[3-(4,4,4-trifluoro-butoxy)phenyl]methyl}benzothiazole] | < 1000 nM |
